Source: patent US11884671B2, “Purinone compounds and their use in treating cancer” (ASTRAZENECA AB, priority 2018, dated 2024)

Tests used:
DNAPK = DNAPK (Homo sapiens (Human), UniProt P78527); assay: DNAPK cellular potency assay (DNA-PK cell), pS2056-DNAPK ELISA in irradiated A549 cells; type: cell-based; conditions: 8 Gy radiation, arithmetic mean of two or more experiments, read-out: DNA-PK cell pIC50 (converted)
JAK2 = JAK2 (Homo sapiens (Human), UniProt O60674); assay: JAK2 enzyme assay (Z'-LYTE); type: biochemical; conditions: 25 μM ATP; arithmetic mean of two or more experiments
Sequence of JAK2 (O60674 whole entry): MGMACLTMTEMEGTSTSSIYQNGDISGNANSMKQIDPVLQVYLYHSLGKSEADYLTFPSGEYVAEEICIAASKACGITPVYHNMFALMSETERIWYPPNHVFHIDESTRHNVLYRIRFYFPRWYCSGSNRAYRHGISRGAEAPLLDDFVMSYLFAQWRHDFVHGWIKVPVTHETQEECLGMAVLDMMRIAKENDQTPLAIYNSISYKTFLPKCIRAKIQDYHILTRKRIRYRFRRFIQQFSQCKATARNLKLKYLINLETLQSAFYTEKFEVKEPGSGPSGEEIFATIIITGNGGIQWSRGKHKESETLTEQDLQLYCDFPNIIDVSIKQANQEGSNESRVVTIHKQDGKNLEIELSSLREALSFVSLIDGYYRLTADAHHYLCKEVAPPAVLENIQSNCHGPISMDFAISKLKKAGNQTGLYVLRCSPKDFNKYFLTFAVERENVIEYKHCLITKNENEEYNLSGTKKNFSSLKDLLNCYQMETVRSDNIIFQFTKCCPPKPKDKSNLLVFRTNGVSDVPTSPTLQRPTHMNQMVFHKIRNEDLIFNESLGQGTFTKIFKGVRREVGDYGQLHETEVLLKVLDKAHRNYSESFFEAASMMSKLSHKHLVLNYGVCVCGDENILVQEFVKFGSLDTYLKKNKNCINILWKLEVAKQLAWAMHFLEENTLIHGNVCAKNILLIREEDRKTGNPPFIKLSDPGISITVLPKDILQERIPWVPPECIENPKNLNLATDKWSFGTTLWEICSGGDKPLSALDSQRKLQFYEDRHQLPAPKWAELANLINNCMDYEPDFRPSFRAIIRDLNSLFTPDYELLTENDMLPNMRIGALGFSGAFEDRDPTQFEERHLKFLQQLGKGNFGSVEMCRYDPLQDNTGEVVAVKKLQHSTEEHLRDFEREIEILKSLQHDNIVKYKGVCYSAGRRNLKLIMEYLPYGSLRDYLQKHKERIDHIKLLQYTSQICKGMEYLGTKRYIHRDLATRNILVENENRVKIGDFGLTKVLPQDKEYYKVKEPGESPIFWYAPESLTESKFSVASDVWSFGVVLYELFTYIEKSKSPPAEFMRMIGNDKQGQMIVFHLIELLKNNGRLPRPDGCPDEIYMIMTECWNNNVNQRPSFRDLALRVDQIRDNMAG

JAK3 = JAK3 (Homo sapiens (Human), UniProt P52333); assay: JAK3 enzyme assay (Z'-LYTE); type: biochemical; conditions: 10 μM ATP; arithmetic mean of two or more experiments
Sequence of JAK3 (P52333 whole entry): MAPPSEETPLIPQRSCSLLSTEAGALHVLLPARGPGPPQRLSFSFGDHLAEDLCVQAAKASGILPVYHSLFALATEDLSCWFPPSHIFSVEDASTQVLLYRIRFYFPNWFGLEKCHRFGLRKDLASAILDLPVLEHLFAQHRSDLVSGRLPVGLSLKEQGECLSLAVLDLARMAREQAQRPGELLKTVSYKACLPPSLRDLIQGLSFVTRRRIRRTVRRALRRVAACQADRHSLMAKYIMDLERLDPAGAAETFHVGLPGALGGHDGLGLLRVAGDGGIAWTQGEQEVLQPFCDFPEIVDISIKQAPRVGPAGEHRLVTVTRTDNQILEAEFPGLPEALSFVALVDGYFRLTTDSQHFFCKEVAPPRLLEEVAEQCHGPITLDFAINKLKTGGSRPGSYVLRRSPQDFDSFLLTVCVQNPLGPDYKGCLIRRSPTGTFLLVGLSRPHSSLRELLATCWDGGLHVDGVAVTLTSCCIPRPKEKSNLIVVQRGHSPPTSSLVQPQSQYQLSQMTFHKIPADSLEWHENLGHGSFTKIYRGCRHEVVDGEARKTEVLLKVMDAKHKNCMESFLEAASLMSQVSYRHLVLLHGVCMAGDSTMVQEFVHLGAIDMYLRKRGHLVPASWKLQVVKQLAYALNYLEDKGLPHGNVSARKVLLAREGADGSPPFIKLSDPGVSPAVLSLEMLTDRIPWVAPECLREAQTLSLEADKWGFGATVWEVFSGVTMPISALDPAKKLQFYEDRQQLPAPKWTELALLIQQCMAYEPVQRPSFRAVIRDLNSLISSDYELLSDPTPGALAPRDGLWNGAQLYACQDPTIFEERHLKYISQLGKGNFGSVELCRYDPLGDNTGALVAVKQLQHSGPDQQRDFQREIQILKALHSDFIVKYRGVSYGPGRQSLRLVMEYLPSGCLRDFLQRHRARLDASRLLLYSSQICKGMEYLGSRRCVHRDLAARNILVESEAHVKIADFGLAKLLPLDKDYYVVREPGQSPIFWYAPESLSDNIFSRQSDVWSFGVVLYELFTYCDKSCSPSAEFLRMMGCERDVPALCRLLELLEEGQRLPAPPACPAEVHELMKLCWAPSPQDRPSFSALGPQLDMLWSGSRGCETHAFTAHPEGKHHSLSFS

AURKA (Aurora A) = AURKA (Aurora A) (Homo sapiens (Human), UniProt O14965); assay: Aurora-A enzyme assay (Z'-LYTE); type: biochemical; conditions: 10 μM ATP; arithmetic mean of two or more experiments
Sequence of AURKA (Aurora A) (O14965 whole entry): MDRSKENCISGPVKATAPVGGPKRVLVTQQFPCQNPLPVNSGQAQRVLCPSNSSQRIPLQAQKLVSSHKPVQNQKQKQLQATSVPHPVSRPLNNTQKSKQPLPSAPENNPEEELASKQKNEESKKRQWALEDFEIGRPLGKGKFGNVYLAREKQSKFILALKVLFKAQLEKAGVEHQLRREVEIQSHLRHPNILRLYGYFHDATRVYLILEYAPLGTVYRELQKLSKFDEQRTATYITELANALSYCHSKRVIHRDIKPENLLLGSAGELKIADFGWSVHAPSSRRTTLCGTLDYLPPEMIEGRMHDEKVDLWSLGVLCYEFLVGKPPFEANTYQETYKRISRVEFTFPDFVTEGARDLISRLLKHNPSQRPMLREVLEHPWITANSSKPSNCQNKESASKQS

AURKB (Aurora B) = AURKB (Aurora B) (Homo sapiens (Human), UniProt Q96GD4); assay: Aurora-B enzyme assay (Z'-LYTE); type: biochemical; conditions: 75 μM ATP; arithmetic mean of two or more experiments
Sequence of AURKB (Aurora B) (Q96GD4 whole entry): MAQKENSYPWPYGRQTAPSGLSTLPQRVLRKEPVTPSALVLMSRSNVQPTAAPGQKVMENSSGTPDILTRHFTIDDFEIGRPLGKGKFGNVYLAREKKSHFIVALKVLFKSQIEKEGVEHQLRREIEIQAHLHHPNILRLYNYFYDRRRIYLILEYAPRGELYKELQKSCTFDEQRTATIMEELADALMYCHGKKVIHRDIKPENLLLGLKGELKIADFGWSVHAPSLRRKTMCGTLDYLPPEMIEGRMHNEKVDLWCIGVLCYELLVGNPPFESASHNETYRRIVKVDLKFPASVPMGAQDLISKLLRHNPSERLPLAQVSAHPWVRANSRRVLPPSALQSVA

## Cc1cc2ncccc2cc1Nc1ncc2c(n1)n(C1COC1)c(=O)n2C [Example 36, 7-methyl-2-((7-methylquinolin-6-yl)amino)-9-(oxetan-3-yl)-7,9-dihydro-8H-purin-8-one]
DNAPK
  IC50: 31.6 nM
JAK2
  JAK2 enz pIC50: <5.1
JAK3
  JAK3 enz pIC50: <5
AURKA (Aurora A)
  AurA enz pIC50: <5
AURKB (Aurora B)
  AurB enz pIC50: <5

## CC(=O)N1CCC(n2c(=O)n(C)c3cnc(Nc4cc5nc(C)cnc5cc4C)nc32)CC1 [Example 5, 9-(1-acetylpiperidin-4-yl)-2-((3,7-dimethylquinoxalin-6-yl)amino)-7-methyl-7,9-dihydro-8H-purin-8-one]
DNAPK
  IC50: 100 nM
JAK2
  JAK2 enz pIC50: <5
JAK3
  JAK3 enz pIC50: <5
AURKA (Aurora A)
  AurA enz pIC50: <5
AURKB (Aurora B)
  AurB enz pIC50: <5

## Cc1cc2nnccc2cc1Nc1ncc2c(n1)n([C@H]1CCCOC1)c(=O)n2C [Example 27, (S)-7-methyl-2-((7-methylcinnolin-6-yl)amino)-9-(tetrahydro-2H-pyran-3-yl)-7,9-dihydro-8H-purin-8-one]
DNAPK
  IC50: 12.6 nM
JAK2
  JAK2 enz pIC50: <5
JAK3
  JAK3 enz pIC50: <5
AURKA (Aurora A)
  AurA enz pIC50: <5
AURKB (Aurora B)
  AurB enz pIC50: <5

## CC(=O)N1CCC(n2c(=O)n(C)c3cnc(Nc4cc5ncc(C)nc5cc4C)nc32)CC1 [Example 4, 9-(1-acetylpiperidin-4-yl)-2-((2,7-dimethylquinoxalin-6-yl)amino)-7-methyl-7,9-dihydro-8H-purin-8-one]
DNAPK
  IC50: 251 nM
JAK2
  JAK2 enz pIC50: <5
JAK3
  JAK3 enz pIC50: <5
AURKA (Aurora A)
  AurA enz pIC50: <5
AURKB (Aurora B)
  AurB enz pIC50: <5

## COCCN1CCC(n2c(=O)n(C)c3cnc(Nc4cc5cccnc5cc4C)nc32)CC1 [Example 49, 9-(1-(2-methoxyethyl)piperidin-4-yl)-7-methyl-2-((7-methylquinolin-6-yl)amino)-7,9-dihydro-8H-purin-8-one]
DNAPK
  IC50: 251 nM
JAK2
  JAK2 enz pIC50: <5
JAK3
  JAK3 enz pIC50: <5
AURKA (Aurora A)
  AurA enz pIC50: <5
AURKB (Aurora B)
  AurB enz pIC50: <5

## Cc1cc2ncccc2cc1Nc1ncc2c(n1)n(C1CCN(C3COC3)CC1)c(=O)n2C [Example 47, 7-methyl-2-((7-methylquinolin-6-yl)amino)-9-(1-(oxetan-3-yl)piperidin-4-yl)-7,9-dihydro-8H-purin-8-one]
DNAPK
  IC50: 200 nM
JAK2
  JAK2 enz pIC50: <5
JAK3
  JAK3 enz pIC50: <5
AURKA (Aurora A)
  AurA enz pIC50: <5
AURKB (Aurora B)
  AurB enz pIC50: <5

## CC(=O)N1CCC(n2c(=O)n(C)c3cnc(Nc4cc5ccnnc5cc4C)nc32)CC1 [Example 1, 9-(1-acetylpiperidin-4-yl)-7-methyl-2-((7-methylcinnolin-6-yl)amino)-7,9-dihydro-8H-purin-8-one]
DNAPK
  IC50: 200 nM
JAK2
  JAK2 enz pIC50: <5.2
JAK3
  JAK3 enz pIC50: <5
AURKA (Aurora A)
  AurA enz pIC50: <5
AURKB (Aurora B)
  AurB enz pIC50: <5
